Experimental data: patent US12037344B2, “NLRP3 modulators” (INNATE TUMOR IMMUNITY, INC., priority 2018, dated 2024)
Read-outs that look alike come from different tables or passages of the source.

Tests used:
[1] = tested on: THP-1 cells; experiment: Measurement of IL-1β production, hTRF protocol (second alternative procedure), THP-1 cells; format: cell-based, human; settings: Homo sapiens
How it was run: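 Compounds, dilution series starting at a final 10 μM, were incubated 2 hours at 37° C with PMA-differentiated THP-1 cells (50 ng/ml overnight; 50,000 cells/well, 2% FBS RPMI). Released IL-1β quantified in supernatant by hTRF kit with 1:40 antibody dilution, 4° C overnight, 665/615 nm ratio.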

[2] = target: T1, TLR7 (Homo sapiens, UniProt Q9NYK1); experiment: In vitro human TLR7 binding reporter assay (HEK-Blue, NF-kB/AP1-inducible SEAP); format: cell-based; settings: read-out: TLR7 Agonist EC50
T1 construct: human HEK-Blue cells co-expressing a TLR7 or TLR8 gene
T1 sequence (Q9NYK1 27-1049): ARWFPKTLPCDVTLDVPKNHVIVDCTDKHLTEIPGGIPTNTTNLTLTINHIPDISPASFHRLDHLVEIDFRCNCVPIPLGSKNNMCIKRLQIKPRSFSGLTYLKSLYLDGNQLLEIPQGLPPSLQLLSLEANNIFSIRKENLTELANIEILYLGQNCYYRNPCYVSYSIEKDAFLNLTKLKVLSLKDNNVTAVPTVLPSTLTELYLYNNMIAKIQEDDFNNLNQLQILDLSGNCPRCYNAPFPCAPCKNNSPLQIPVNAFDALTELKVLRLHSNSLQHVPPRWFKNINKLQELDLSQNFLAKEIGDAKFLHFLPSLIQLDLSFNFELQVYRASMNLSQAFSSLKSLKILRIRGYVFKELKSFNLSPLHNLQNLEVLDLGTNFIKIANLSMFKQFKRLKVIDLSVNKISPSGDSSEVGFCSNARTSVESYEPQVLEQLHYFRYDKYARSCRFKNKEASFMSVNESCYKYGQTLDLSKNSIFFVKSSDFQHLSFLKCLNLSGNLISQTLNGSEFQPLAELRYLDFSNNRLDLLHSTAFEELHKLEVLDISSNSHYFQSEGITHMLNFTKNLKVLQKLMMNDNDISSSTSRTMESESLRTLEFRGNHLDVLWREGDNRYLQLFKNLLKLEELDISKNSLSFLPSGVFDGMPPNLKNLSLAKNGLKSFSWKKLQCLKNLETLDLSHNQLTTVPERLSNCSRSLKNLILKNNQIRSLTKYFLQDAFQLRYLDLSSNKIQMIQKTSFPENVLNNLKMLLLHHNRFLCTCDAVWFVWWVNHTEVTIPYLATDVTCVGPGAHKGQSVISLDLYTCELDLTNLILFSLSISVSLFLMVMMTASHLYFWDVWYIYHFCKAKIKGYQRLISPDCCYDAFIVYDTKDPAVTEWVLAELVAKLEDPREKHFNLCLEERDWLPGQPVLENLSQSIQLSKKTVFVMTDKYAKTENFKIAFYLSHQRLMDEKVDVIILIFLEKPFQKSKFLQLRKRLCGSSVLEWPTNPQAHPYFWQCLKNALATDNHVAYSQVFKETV
How it was run: (§1)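 EC50s come from NF-kB/AP1-driven SEAP secretion in HEK-Blue cells expressing TLR7 or TLR8, measured with Quanti-Blue after an 18 h compound incubation. Maximal response is defined by a 50 μM reference standard.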

[3] = target: T2, TLR8 (Homo sapiens, UniProt Q9NR97); experiment: In vitro human TLR8 binding reporter assay (HEK-Blue, NF-kB/AP1-inducible SEAP); format: cell-based; settings: read-out: TLR8 Agonist EC50
T2 construct: human HEK-Blue cells co-expressing a TLR7 or TLR8 gene
T2 sequence (Q9NR97 27-1041): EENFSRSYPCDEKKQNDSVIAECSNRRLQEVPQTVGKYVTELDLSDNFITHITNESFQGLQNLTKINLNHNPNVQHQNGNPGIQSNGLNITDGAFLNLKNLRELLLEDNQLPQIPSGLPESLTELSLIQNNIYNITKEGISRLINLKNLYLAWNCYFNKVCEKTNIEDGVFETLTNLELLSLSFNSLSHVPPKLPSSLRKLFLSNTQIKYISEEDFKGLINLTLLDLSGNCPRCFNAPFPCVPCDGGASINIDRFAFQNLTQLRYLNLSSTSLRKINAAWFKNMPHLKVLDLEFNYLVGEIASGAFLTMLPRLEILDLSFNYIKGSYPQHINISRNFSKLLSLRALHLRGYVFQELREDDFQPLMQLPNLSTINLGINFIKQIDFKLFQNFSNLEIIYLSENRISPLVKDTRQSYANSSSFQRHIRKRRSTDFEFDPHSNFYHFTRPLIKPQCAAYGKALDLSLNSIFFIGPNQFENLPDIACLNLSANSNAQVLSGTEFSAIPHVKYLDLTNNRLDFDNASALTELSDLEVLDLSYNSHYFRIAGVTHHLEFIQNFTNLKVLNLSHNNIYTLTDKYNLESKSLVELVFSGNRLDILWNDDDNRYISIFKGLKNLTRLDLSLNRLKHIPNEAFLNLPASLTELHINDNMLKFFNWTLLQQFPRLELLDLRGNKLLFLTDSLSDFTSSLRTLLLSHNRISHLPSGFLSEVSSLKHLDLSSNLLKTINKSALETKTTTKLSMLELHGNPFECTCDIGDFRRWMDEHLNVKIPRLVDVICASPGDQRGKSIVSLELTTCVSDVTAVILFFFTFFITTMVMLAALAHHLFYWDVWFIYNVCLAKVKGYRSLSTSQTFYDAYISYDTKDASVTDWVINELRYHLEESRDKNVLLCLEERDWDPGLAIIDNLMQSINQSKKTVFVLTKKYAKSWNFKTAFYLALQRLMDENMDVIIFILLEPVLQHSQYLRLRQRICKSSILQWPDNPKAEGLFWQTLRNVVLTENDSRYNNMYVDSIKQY
How it was run: as §1

[4] = THP-1, IL-1β production, human cells, read-out: NLRP3 hILIB EC50
[5] = THP-1, IL-1β production, human, read-out: NLRP3 hILIB EC50

| Compound | EC50 [1, 4] [nM] | EC50 ([2]; activity range) [µM] | EC50 ([3]; activity range) [µM] | EC50 [1, 5] [nM] | EC50 ([2]; activity range class) [µM] | EC50 ([3]; activity range class) [µM] | EC50 ([1]; THP-1, read-out: NLRP3 hILIB EC50) [nM] |
| --- | --- | --- | --- | --- | --- | --- | --- |
| C[C@H](Cn1cc2c(n1)c(N)nc1cc(-c3cc[nH]n3)ccc12)NS(C)(=O)=O [Example 530] | 680 | > 100 | > 100 | – | – | – | – |
| Cc1[nH]c2c(c(N)nc3cc(-c4cc[nH]n4)ccc32)c1C [Example 423, 2,3-dimethyl-7-(1H-pyrazol-3-yl)-1H-pyrrolo[3,2-c]quinolin-4-amine] | 620 | > 100 | > 100 | – | – | – | – |
| CC(C)(Cn1cc2c(N)nc3cc(-c4ccn[nH]4)ccc3c2n1)C(=O)NCc1cccnc1 [Example 601] | 32400 | > 100 | > 100 | – | – | – | – |
| Nc1nc2cc(-c3cc[nH]n3)ccc2c2cn(CCNCc3cccnc3)nc12 [Example 110] | – | – | – | 13100 | 20 to 100 | 1 to 20 | – |
| Nc1nc2cc(-c3ccn[nH]3)ccc2c2sc(CCCO)nc12 [Example 142, 3-[4-amino-7-(1H-pyrazol-3-yl)-[1,3]thiazolo[4,5-c]quinolin-2-yl]propan-1-ol] | – | – | – | 1500 | > 100 | 20 to 100 | – |
| CC(C)(Cn1cc2c(N)nc3cc(-c4cc[nH]n4)ccc3c2n1)NC(=O)c1ccc(F)cn1 [Example 293] | – | – | – | 600 | > 100 | > 100 | – |
| CC(C)OCC(O)Cn1cc2c(N)nc3cc(-c4cc[nH]n4)ccc3c2n1 (stereo not drawn) [Example 371] | – | – | – | 1940 | > 100 | > 100 | – |
| CC(C)(CO)NC(=O)Cn1cc2c(n1)c(N)nc1cc(-c3cc[nH]n3)ccc12 [Example 537] | 2750 | > 100 | > 100 | – | – | – | – |
| Nc1nc2cc(-c3ccn[nH]3)ccc2c2nn(CCNS(=O)(=O)N3CCOCC3)cc12 [Example 593] | 28100 | > 100 | > 100 | – | – | – | – |
| CCn1c(CN)cc2c(N)nc3cc(-c4ccn[nH]4)ccc3c21 [Example 441] | 1330 | > 100 | > 100 | – | – | – | – |
| Nc1nc2cc(-c3cc[nH]n3)ccc2c2nn(CCCN3CCOCC3)cc12 [Example 213] | – | – | – | 3210 | > 100 | > 100 | – |
| CC(C(=O)N(C)C)n1cc2c(N)nc3cc(-c4ccn[nH]4)ccc3c2n1 (stereo not drawn) [Example 561] | 950 | > 100 | > 100 | – | – | – | – |
| CCn1c(CN(C)C)cc2c(N)nc3cc(-c4ccn[nH]4)ccc3c21 [Example 444] | 260 | > 100 | > 100 | – | – | – | – |
| Nc1nc2cc(-c3cc[nH]n3)ccc2c2cn(CC(=O)N3CC(F)(F)C3)nc12 [Example 545] | 1790 | > 100 | > 100 | – | – | – | – |
| Nc1nc2cc(-c3cc[nH]n3)ccc2c2nn(CCC(=O)NCCO)cc12 [Example 511] | 4620 | > 100 | > 100 | – | – | – | – |
| Nc1nc2cc(-c3cc[nH]n3)ccc2c2[nH]c(CNCCO)cc12 [Example 494] | 1890 | > 100 | > 100 | – | – | – | – |
| Nc1nc2cc(-c3cc[nH]n3)ccc2c2nn(CCC(=O)NCC(F)F)cc12 [Example 515] | 4090 | > 100 | > 100 | – | – | – | – |
| Cn1cnc(C(=O)NCCc2cc3c(N)nc4cc(-c5cc[nH]n5)ccc4c3[nH]2)c1 [Example 518] | 530 | > 100 | > 100 | – | – | – | – |
| Nc1nc2cc(-c3cc[nH]n3)ccc2c2cn(CCNCc3ccccn3)nc12 [Example 112] | – | – | – | 2500 | > 100 | > 100 | – |
| CC(C)(O)Cn1cc2c(n1)c(N)nc1cc(-c3ccn[nH]3)ccc12 [Example 450] | 530 | > 100 | > 100 | – | – | – | – |
| Nc1nc2cc(-c3cc[nH]n3)ccc2c2cn(CCNC(=O)c3ccc(Cl)cn3)nc12 [Example 72] | – | – | – | 140 | 20 to 100 | 20 to 100 | – |
| CC(=O)N(C)CCn1cc2c(N)nc3cc(-c4ccn[nH]4)ccc3c2n1 [Example 259] | – | – | – | 2290 | > 100 | > 100 | – |
| CC(C)NC(=O)C(C)Cn1cc2c(N)nc3cc(-c4cc[nH]n4)ccc3c2n1 (stereo not drawn) [Example 614] | 11600 | > 100 | > 100 | – | – | – | – |
| CCC(=O)NCCn1cc2c(n1)c(N)nc1cc(-c3cc[nH]n3)ccc12 [Example 48] | – | – | – | 5200 | > 100 | > 100 | – |
| CC(=O)N1CCCC1Cn1cc2c(N)nc3cc(-c4ccn[nH]4)ccc3c2n1 (stereo not drawn) [Example 258] | – | – | – | 1780 | > 100 | > 100 | – |
| CN(CCn1cc2c(n1)c(N)nc1cc(-c3cc[nH]n3)ccc12)C(=O)c1ccccc1 [Example 120, N-{2-[4-amino-7-(1H-pyrazol-3-yl)-2H-pyrazolo[3,4-c]quinolin-2-yl]ethyl}-N-methylbenzamide] | – | – | – | – | > 100 | 20 to 100 | 1870 |
| Nc1nc2cc(-c3cc[nH]n3)ccc2c2nn(CCO)cc12 [Example 396] | 650 | > 100 | > 100 | – | – | – | – |
| N#CC1(Cn2cc3c(N)nc4cc(-c5cc[nH]n5)ccc4c3n2)CC1 [Example 464] | 240 | > 100 | > 100 | – | – | – | – |
